Reference: US12285503B2, “Methods and reagents for tumor targeting with greater efficacy and less toxicity” (CORNELL UNIVERSITY, priority 2017, dated 2025)

Key:
[1] = target: T1, PSMA (Homo sapiens, UniProt Q04609); settings: cited from earlier work
T1 construct: when treating prostate cancer patients with PSMA-617-Ac^225 has been reported; host or cells: prostate cancer patients (Kratochwil et al., J. Nucl. Med. 2017)

[2] = test system: CWR22Rv1 cells; assay: Internalization assay, CWR22Rv1 cells; assay type: cell-based; settings: 1 hour at 37° C.
Protocol: (§1) Internalization assay. LNCaP and CWR22Rv1 cells were trypsinized and aliquoted into tubes at 1×10^6 cells per tube. Cells were washed once with RPMI (no FBS). ^177Lu-J591 (150,000 CPM) in […] RPMI (no FBS) per tube and/or ^177Lu-PSMA-617 (110,000 CPM) was added in […] RPMI (no FBS) per tube. The samples were incubated for 1 hour at 37° C., with the cells re-suspended every 15 minutes. After incubation, the cells were washed twice with 0.1% BSA/PBS to remove unbound/un-internalized binding agents. Samples were counted.

[3] = target: T1, PSMA; assay: PSA declines as indication of anti-tumor activity in patients; assay type: in vivo
Source text: J591-Lu^177 begins to induce PSA declines, as an indication of anti-tumor activity, at an administered ^177Lu dose of ≤30 mCi/m^2 given twice at a 2 week interval. As the dose is increased to 140, 160 and 180 mCi [total], the magnitude of the PSA/anti-tumor response gets progressively greater.
PSMA-617/ligand-Lu^177 begins to induce PSA declines at an administered cumulative ^177Lu dose of 300 mCi (11.1 Gbq) given in a 2-dose regimen at a 2 week interval (150 mCi×2). As the dose is increased to 2-dose totals of 400-500 mCi (14.8-18.5 GBq), the magnitude of the PSA/anti-tumor response gets progressively greater.

[4] = test system: LNCaP cells; assay: Internalization assay, LNCaP cells; assay type: cell-based; settings: 1 hour at 37° C.
Protocol: as §1

[5] = limit to the kidney and salivary glands; cited from earlier work
[6] = target: T1, PSMA; assay: Normal tissue bio-distribution / organ radioactive dose of PSMA-targeting agents in patients; assay type: in vivo
Source text: While the two different classes of agents both bind to their target (e.g., PSMA, SSTR-2, CD20, etc)-expressing tumor cells, the normal tissues that get targeted differs between classes of agents. As an example, PSMA is expressed not only by prostate cancer cells but also by the normal parotid and other salivary glands, lacrimal glands, kidney and small bowel (See FIGS. 4-7). […] With both types of agents, the tumor sites are targeted, but the normal tissues that are targeted are different and virtually mutually exclusive.

T1 sequence (Q04609 whole entry): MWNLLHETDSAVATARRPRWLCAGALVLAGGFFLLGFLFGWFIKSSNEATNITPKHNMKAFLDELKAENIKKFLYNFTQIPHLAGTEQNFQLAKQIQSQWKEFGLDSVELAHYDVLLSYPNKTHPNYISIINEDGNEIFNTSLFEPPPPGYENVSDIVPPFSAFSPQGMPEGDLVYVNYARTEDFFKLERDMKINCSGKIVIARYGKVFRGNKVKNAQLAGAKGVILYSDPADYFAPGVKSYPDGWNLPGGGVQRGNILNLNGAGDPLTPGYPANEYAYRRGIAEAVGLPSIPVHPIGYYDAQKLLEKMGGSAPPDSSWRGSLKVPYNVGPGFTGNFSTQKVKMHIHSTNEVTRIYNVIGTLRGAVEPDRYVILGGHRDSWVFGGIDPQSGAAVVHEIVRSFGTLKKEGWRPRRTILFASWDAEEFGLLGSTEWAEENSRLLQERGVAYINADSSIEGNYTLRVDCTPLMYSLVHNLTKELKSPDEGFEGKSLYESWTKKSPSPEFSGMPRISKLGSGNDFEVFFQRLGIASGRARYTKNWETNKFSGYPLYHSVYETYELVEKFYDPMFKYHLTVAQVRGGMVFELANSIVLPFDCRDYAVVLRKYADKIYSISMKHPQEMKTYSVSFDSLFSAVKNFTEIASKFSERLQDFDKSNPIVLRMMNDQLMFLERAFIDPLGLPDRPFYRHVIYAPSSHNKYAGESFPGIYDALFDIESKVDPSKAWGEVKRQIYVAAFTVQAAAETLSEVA

SMILES | tolerable dose ([1]; human, in vivo) | treatment activity above which severe xerostomia becomes the dose-limiting toxicity ([1]; human, in vivo) | anti-tumor response ([1]; treatment activity 50 kBq/kg, patients with high tumor burden) | toxicity ([1]; treatment activity 50 kBq/kg) | 177Lu internalization [2] | administered cumulative 177Lu dose at which PSA declines begin ([3]; 2-dose regimen at a 2 week interval) | administered cumulative 177Lu dose at which PSA declines begin ([3]; 2-dose regimen at a 2 week interval (150 mCi×2)) | 177Lu internalization [4] | maximum safe cumulative dose [5] | dose to the bone marrow / thrombocytopenia [6]
O=C([O-])CC[C@H](NC(=O)N[C@@H](CCCCNC(=O)[C@H](Cc1ccc2ccccc2c1)NC(=O)C1CCC(CNC(=O)CN2CCN(CC(=O)[O-])CCN(CC(=O)[O-])CCN(CC(=O)[O-])CC2)CC1)C(=O)[O-])C(=O)[O-].[225Ac].[H+].[H+].[H+] (stereo partly shown) [PSMA-617-Ac^225] | 100 Kbq/kg | exceeded 100 kBq/kg per cycle | insufficient anti-tumor response | without toxicity |  |  |  |  |  | 
O=C([O-])CN1CCN(CC(=O)[O-])CCN(CC(=O)NCC2CCC(C(=O)N[C@@H](Cc3ccc4ccccc4c3)C(=O)NCCCC[C@H](NC(=O)N[C@@H](CCC(=O)O)C(=O)O)C(=O)O)CC2)CCN(CC(=O)[O-])CC1.[177Lu+3] (stereo partly shown) [PSMA-617-^177Lu] |  |  |  |  | internalized to a similar degree | 11.1 Gbq | 300 mCi | internalized to a similar degree | 27-30 Gbq | does not cause thrombocytopenia
